The numbers were not newly measured in patent publication US7309799B2 (Collegium Pharmaceutical, Inc., priority 2004, dated 2007), which cites them from elsewhere.

The target of series [1] is reuptake of serotonin (Homo sapiens, UniProt P31645). As to conditions: compared with noradrenaline reuptake.
For series [2], the system named is neurotransmitter receptor.
Series [3] has as its system SNL-induced hypersensitivity. As to conditions: rats; for reversal of mechanical hypersensitivity: SNL.
For series [4], the system named is gastric mucosa. As to conditions: preclinical studies.

reuptake of serotonin, sequence (P31645 whole entry): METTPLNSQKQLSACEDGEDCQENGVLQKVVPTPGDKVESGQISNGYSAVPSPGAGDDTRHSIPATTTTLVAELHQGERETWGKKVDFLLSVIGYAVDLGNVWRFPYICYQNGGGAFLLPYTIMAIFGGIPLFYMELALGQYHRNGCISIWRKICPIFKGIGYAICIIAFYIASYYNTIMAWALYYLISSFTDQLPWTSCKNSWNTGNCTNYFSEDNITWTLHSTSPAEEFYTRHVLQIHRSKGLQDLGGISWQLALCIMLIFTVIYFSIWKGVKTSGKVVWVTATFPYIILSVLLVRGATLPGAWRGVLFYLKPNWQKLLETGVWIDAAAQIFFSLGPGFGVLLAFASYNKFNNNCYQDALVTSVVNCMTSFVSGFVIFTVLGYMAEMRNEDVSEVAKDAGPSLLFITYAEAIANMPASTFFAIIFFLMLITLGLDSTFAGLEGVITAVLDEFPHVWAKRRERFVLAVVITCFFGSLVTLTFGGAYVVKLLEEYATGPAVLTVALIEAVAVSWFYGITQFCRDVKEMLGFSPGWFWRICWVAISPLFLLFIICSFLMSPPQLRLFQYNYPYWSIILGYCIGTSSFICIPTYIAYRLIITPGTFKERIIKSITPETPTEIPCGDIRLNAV

As to `CCN(CC)C(=O)[C@@]1(c2ccccc2)C[C@H]1CN.Cl` (racemic) [milnacipran, racemic cis-2-(aminomethyl)-N,N-diethyl-1-phenyl-cyclopropanecarboxamide], the “potency of inhibition of the reuptake of serotonin” value in series [1] is “essentially equal potency”. Also, in series [2], the “affinity for any neurotransmitter receptor studied” value is “no detectable affinity”. For the same compound, in series [3], the “effectiveness in reversing SNL induced thermal hypersensitivity compared with duloxetine” value was “more effective”, the “reversal of SNL-induced thermal hypersensitivity” value is “both reversed” and the “reversal of mechanical hypersensitivity” value is given as “Neither milnacipran nor duloxetine reversed”. The “general and cardiovascular tolerability versus TCAs” value (database of over 3300 patients) is recorded as “superior to those of the tricyclic antidepressants (TCAs)”. Also, where the note is “human, in vivo”, the “incidence of dysuria versus SSRIs” value is “higher incidence of dysuria” and the “tolerability versus SSRIs” value is on record as “comparable to that of the SSRIs”. In addition, the “nausea and vomiting (dose-limiting gastrointestinal disturbances)” value (oral administration) was “increasing frequency after doses of 100 mg or above”. Further, in series [4], the “effect on gastric mucosa” value is “direct irritant effect”.
`CNCC[C@H](Oc1cccc2ccccc12)c1cccs1` [duloxetine]: in series [3], the “reversal of SNL-induced thermal hypersensitivity” value is “both reversed” and the “reversal of mechanical hypersensitivity” value is “Neither milnacipran nor duloxetine reversed”.
